Results taken from the NIST ThermoML archive (doi:10.1021/je0496140).

Experiment: xn = mol fraction of the nth substance listed
Conditions: 101.33 kPa, Liquid

CCCCCl [1-chlorobutane] + CC(C)(C)O
Conditions | mass density [kg/m3] | viscosity [mPa·s]
298.15 K, x2 = 0.0966 | – | 0.442
298.15 K, x2 = 0.2 | – | 0.476
298.15 K, x2 = 0.2904 | – | 0.517
298.15 K, x2 = 0.3901 | – | 0.577
298.15 K, x2 = 0.4897 | – | 0.662
298.15 K, x2 = 0.5956 | – | 0.799
298.15 K, x2 = 0.6919 | – | 1
298.15 K, x2 = 0.8008 | – | 1.425
298.15 K, x2 = 0.8889 | – | 2.112
303.15 K, x2 = 0.0924 | 864.09 | –
303.15 K, x2 = 0.0966 | – | 0.419
303.15 K, x2 = 0.1915 | 853.49 | –
303.15 K, x2 = 0.2 | – | 0.449
303.15 K, x2 = 0.2758 | 844.75 | –
303.15 K, x2 = 0.2904 | – | 0.486
303.15 K, x2 = 0.38 | 834.23 | –
303.15 K, x2 = 0.3901 | – | 0.537
303.15 K, x2 = 0.481 | 824.02 | –
303.15 K, x2 = 0.4897 | – | 0.611
303.15 K, x2 = 0.5729 | 814.91 | –
303.15 K, x2 = 0.5956 | – | 0.727
303.15 K, x2 = 0.6749 | 804.89 | –
303.15 K, x2 = 0.6919 | – | 0.892
303.15 K, x2 = 0.7778 | 795.09 | –
303.15 K, x2 = 0.8008 | – | 1.232
303.15 K, x2 = 0.8889 | – | 1.752
303.15 K, x2 = 0.8938 | 784.46 | –
308.15 K, x2 = 0.0966 | – | 0.397
308.15 K, x2 = 0.0969 | 857.96 | –
308.15 K, x2 = 0.1912 | 847.87 | –
308.15 K, x2 = 0.2 | – | 0.423
308.15 K, x2 = 0.2786 | 838.9 | –
308.15 K, x2 = 0.2904 | – | 0.456
308.15 K, x2 = 0.3839 | 828.23 | –
308.15 K, x2 = 0.3901 | – | 0.502
308.15 K, x2 = 0.4811 | 818.5 | –
308.15 K, x2 = 0.4897 | – | 0.565
308.15 K, x2 = 0.5844 | 808.35 | –
308.15 K, x2 = 0.5956 | – | 0.664
308.15 K, x2 = 0.6849 | 798.55 | –
308.15 K, x2 = 0.6919 | – | 0.801
308.15 K, x2 = 0.7881 | 788.78 | –
308.15 K, x2 = 0.8008 | – | 1.081
308.15 K, x2 = 0.8889 | – | 1.474
308.15 K, x2 = 0.8957 | 779.05 | –
313.15 K, x2 = 0.093 | 852.6 | –
313.15 K, x2 = 0.0966 | – | 0.378
313.15 K, x2 = 0.1869 | 842.51 | –
313.15 K, x2 = 0.2 | – | 0.4
313.15 K, x2 = 0.2685 | 834.13 | –
313.15 K, x2 = 0.2904 | – | 0.428
313.15 K, x2 = 0.3778 | 823.11 | –
313.15 K, x2 = 0.3901 | – | 0.468
313.15 K, x2 = 0.4841 | 812.56 | –
313.15 K, x2 = 0.4897 | – | 0.525
313.15 K, x2 = 0.5777 | 803.43 | –
313.15 K, x2 = 0.5956 | – | 0.608
313.15 K, x2 = 0.6796 | 793.58 | –
313.15 K, x2 = 0.6919 | – | 0.724
313.15 K, x2 = 0.7766 | 784.47 | –
313.15 K, x2 = 0.8008 | – | 0.947
313.15 K, x2 = 0.8889 | – | 1.255
313.15 K, x2 = 0.8972 | 773.57 | –
318.15 K, x2 = 0.0918 | 847.04 | –
318.15 K, x2 = 0.0966 | – | 0.359
318.15 K, x2 = 0.1839 | 837.08 | –
318.15 K, x2 = 0.2 | – | 0.38
318.15 K, x2 = 0.2674 | 828.47 | –
318.15 K, x2 = 0.2904 | – | 0.404
318.15 K, x2 = 0.3797 | 817.22 | –
318.15 K, x2 = 0.3901 | – | 0.439
318.15 K, x2 = 0.4809 | 807.29 | –
318.15 K, x2 = 0.4897 | – | 0.488
318.15 K, x2 = 0.5799 | 797.62 | –
318.15 K, x2 = 0.5956 | – | 0.56
318.15 K, x2 = 0.678 | 788.38 | –
318.15 K, x2 = 0.6919 | – | 0.658
318.15 K, x2 = 0.7833 | 778.42 | –
318.15 K, x2 = 0.8008 | – | 0.841
318.15 K, x2 = 0.8889 | – | 1.083
318.15 K, x2 = 0.8905 | 768.84 | –
